Test results taken from article PMC2659609 (Molecular cancer therapeutics, 2008).

Tests used:
HEK 293FT cells = assay: Toxicity to HEK 293FT cells under pericellular assay conditions; format: cell-based; settings: 24-hour treatment
[1] = biological target: purified recombinant human hepsin (Homo sapiens, UniProt P05981); assay: Hepsin activity assay, chromogenic substrate pyroGlu-Pro-Arg-pNA, kinetic
thrombin = thrombin (Bos taurus, UniProt P00735); assay: Thrombin activity assay, chromogenic substrate pyroGlu-Pro-Arg-pNA, kinetic; format: biochemical
[2] = biological target: full-length wild-type mouse hepsin expressed in HEK 293FT cells (Mus musculus, UniProt O35453); assay: Hepsin-dependent pericellular serine proteolytic activity assay; format: cell-based
[3] = tested on: human prostate cancer cell line LNCaP; assay: General cell cytotoxicity assay; format: cell-based; settings: 20μM, 72 hours, media and compounds replaced every 24 hours
[4] = tested on: mouse prostate epithelial cell line MP-1; assay: General cell cytotoxicity assay; format: cell-based; settings: 20μM, 72 hours, media and compounds replaced every 24 hours
[5] = tested on: human hepatoma cell line HepG2; assay: General cell cytotoxicity assay; format: cell-based; settings: 20μM, 72 hours, media and compounds replaced every 24 hours
trypsin = trypsin (Sus scrofa, UniProt P00761); assay: Trypsin activity assay, chromogenic substrate pyroGlu-Pro-Arg-pNA, kinetic; format: biochemical
[6] = approximate; cited from earlier work
[7] = mainly to albumin; cited from earlier work

Sequence of purified recombinant human hepsin (P05981 46-417): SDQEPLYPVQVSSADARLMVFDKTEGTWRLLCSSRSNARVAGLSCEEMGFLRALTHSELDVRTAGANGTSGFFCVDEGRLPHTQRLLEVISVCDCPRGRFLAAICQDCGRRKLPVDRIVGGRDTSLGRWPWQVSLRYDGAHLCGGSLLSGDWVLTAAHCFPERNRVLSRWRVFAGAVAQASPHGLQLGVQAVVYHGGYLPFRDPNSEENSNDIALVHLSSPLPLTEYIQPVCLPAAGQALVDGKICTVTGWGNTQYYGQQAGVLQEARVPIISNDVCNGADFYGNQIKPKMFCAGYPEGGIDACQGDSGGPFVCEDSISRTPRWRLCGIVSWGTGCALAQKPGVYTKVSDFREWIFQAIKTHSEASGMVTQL
Sequence of full-length wild-type mouse hepsin expressed in HEK 293FT cells (O35453 1-416 isoform O35453-2): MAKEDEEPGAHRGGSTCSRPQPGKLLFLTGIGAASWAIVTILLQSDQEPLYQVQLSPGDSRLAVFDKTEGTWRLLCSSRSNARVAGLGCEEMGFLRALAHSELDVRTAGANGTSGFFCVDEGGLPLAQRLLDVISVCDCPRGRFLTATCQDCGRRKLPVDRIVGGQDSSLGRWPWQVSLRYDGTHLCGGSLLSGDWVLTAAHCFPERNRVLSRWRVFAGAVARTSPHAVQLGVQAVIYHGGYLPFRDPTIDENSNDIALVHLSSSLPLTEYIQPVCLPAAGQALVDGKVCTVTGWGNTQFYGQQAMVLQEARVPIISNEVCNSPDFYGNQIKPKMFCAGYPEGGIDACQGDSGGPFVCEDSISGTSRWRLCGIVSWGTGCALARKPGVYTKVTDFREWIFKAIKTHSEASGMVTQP
Sequence of trypsin (P00761 9-231): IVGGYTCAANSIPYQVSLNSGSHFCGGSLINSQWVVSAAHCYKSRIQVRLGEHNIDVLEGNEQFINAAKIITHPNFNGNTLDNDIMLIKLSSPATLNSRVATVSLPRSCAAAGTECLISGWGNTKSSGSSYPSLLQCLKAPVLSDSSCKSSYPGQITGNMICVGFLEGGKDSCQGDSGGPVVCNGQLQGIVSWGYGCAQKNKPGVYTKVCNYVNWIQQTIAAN

Row | Compound | IC50 (thrombin) [µM] | cytotoxicity to LNCaP cells [3] | cytotoxicity to MP-1 cells [4] | cytotoxicity to HepG2 cells [5] | further results
1 | Cc1cccc(CN2CCN(C(c3ccccc3)c3ccc(Cl)cc3)CC2)c1 (stereo not shown) [Compound 13, meclizine] | > 20 | limited or no cytotoxicity | limited or no cytotoxicity | limited or no cytotoxicity | overt toxicity to HEK 293FT cells / effect on hepsin expression levels (HEK 293FT cells; 20 and 50μM): without substantially affecting hepsin expression levels or displaying overt toxicity; equilibration time dependence of hepsin inhibition [1]: significantly increased with extended equilibration time; reversibility of hepsin inhibition by dilution ([1]; inhibitor at its IC50, 1 hour at room temperature, then diluted): not reversible by dilution; attenuation of pericellular proteolytic activity ([2]; 50μM, normalized to hepsin expression level, relative to vehicle): ~25%; IC50 (trypsin): > 20 µM
2 | CC(C)(Sc1cc(C(C)(C)C)c(O)c(C(C)(C)C)c1)Sc1cc(C(C)(C)C)c(O)c(C(C)(C)C)c1 [Compound 14, probucol] | > 20 | limited or no cytotoxicity | limited or no cytotoxicity | limited or no cytotoxicity | attenuation of pericellular proteolytic activity (in words) ([2]; 20 and 50μM, 24 hours): did not reduce; logP [6]: ~10
3 | O=C1c2c(O)cccc2Cc2cccc(O)c21 [Compound 15, anthralin] | > 20 | toxic | toxic | toxic | toxicity to HEK 293FT cells (HEK 293FT cells; 50μM): substantial toxicity
4 | Oc1nc2cc(Cl)c(Cl)cc2nc1O [Compound 16, 2,3-dihydroxy-6,7-dichloroquinoxaline] |  | limited or no cytotoxicity | limited or no cytotoxicity | limited or no cytotoxicity | 
5 | Cl.NCCc1ccc(S(=O)(=O)F)cc1 [PEFAbloc] |  |  |  |  | inhibition of hepsin proteolytic activity (in words) ([1]; 4mM PEFAbloc, 30 minutes, 0.4nM hepsin): completely inhibited
6 | O=C1Nc2ccc(Cl)cc2[C@@](C#CC2CC2)(C(F)(F)F)O1 [efavirenz] |  |  |  |  | protein bound in plasma [7]: more than 99%
